Assay results: ChEMBL document CHEMBL1157947, “Antineoplastic Agents. 554. The manitoba bacterium Streptomyces sp” (2006)
Values after ≈ are worked out from the molar mass of the structure shown.

Assays:
Type in all cases: functional
[1] = system: NCI-H460; test: Growth inhibition of human NCI-H460 cells
[2] = system: BXPC-3; test: Growth inhibition of human BXPC3 cells
[3] = system: MCF7; test: Growth inhibition of human MCF7 cells
[4] = system: SF-268; test: Growth inhibition of human SF268 cells
[5] = system: DU-145; test: Growth inhibition of human DU145 cells
[6] = system: KM-20L2; test: Growth inhibition of human KM20L2 cells
[7] = system: P388; test: Growth inhibition of mouse P388 cells
[8] = system: Stenotrophomonas maltophilia; test: Antibacterial activity against Stenotrophomonas maltophilia by broth microdilution method
[9] = system: Streptococcus pneumoniae; test: Antibacterial activity against Streptococcus pneumoniae ATCC 6303 by broth microdilution method
[10] = system: Micrococcus luteus; test: Antibacterial activity against Micrococcus luteus by broth microdilution method
[11] = system: Enterobacter cloacae; test: Antibacterial activity against sEnterobacter cloacae by broth microdilution method
[12] = system: Candida albicans; test: Antifungal activity against Candida albicans by broth microdilution method
[13] = system: Staphylococcus aureus; test: Antibacterial activity against Staphylococcus aureus by broth microdilution method
[14] = system: Neisseria gonorrhoeae; test: Antibacterial activity against Neisseria gonorrhoeae ATCC 49226 by broth microdilution method
[15] = system: Cryptococcus neoformans; test: […] activity against Cryptococcus neoformans by broth microdilution method
[16] = system: Escherichia coli; test: Antibacterial activity against sEscherichia coli by broth microdilution method
[17] = system: Enterococcus faecalis; test: Antibacterial activity against sEnterococcus faecalis by broth microdilution method

GI50 [1]	GI50 [2]	GI50 [3]	GI50 [5]	GI50 [7]	MIC [8]	MIC [9]	MIC [10]	MIC [11]	MIC [12]	MIC [13]	MIC [14]	MIC [15]	MIC [16]	MIC [17]	SMILES	GI50 [4]	GI50 [6]
0.17 µg/mL (≈ 0.97 µM)	0.31 µg/mL (≈ 1.77 µM)	0.82 µg/mL (≈ 4.68 µM)	0.21 µg/mL (≈ 1.2 µM)	2.8 µg/mL (≈ 16 µM)	–	–	–	–	–	–	–	–	–	–	O=C(CO)c1c[nH]c2ccccc12	1.8 µg/mL (≈ 10.3 µM)	1.2 µg/mL (≈ 6.85 µM)
1.2 µg/mL (≈ 4.02 µM)	0.54 µg/mL (≈ 1.81 µM)	0.49 µg/mL (≈ 1.64 µM)	1 µg/mL (≈ 3.35 µM)	1.4 µg/mL (≈ 4.69 µM)	> 64 µg/mL	16 µg/mL (≈ 53.6 µM)	> 64 µg/mL	> 64 µg/mL	> 64 µg/mL	> 64 µg/mL	4 µg/mL (≈ 13.4 µM)	> 64 µg/mL	> 64 µg/mL	> 64 µg/mL	Cc1cc(=O)n(C)c2c1C(=O)c1c(C)cc(=O)n(C)c1C2=O [DIAZAANTHRAQUINONE]	1.3 µg/mL (≈ 4.36 µM)	0.32 µg/mL (≈ 1.07 µM)
